ChEMBL document CHEMBL1159303, “Isolation and structure determination of obyanamide, a novel cytotoxic cyclic depsipeptide from the marine cyanobacterium Lyngbya confervoides” (J Nat Prod, 2002)
Converted amounts (≈) assume the structure as drawn.

Assays:
KB = assay: Cytotoxicity against human KB cells; type: functional, cell-based
LoVo = assay: Cytotoxicity against human LoVo cells; type: functional, cell-based

CC[C@H]1CC(=O)O[C@@H](C)C(=O)N(C)[C@@H](C(C)C)C(=O)N(C)[C@@H](Cc2ccccc2)C(=O)N[C@@H](C)c2nc(cs2)C(=O)N1 [OBYANAMIDE]
IC50 (KB): 0.58 µg/mL (≈ 0.967 µM) | IC50 (LoVo): 3.14 µg/mL (≈ 5.24 µM)
